Test results from patent US10457655B2, “Compounds and compositions for inhibition of FASN” (FORMA Therapeutics, Inc., priority 2013, dated 2019).
Where two headings read alike, the source gives them in different places.

What was measured:
PC3 cells = assay: Cell Proliferation Assays for FASN Inhibitors (PC3 cells, MTT); format: cell-based; settings: Homo sapiens, PC-3, 96 h
Description: The effects of the FASN inhibitors on cultured cancer cell proliferation were studies with cell proliferation assays. PC3 cells were maintained at standard culture media (F12K media supplemented with 10% fetal bovine serum, 1×MEM nonessential amino acid and 1× penicillin/streptomycin). 2000-3000 cells/100 μL/well was seeded in a 96-well clear culture plate. The cells were incubated overnight in 5% CO2 at 37° C. for attachment. Cell media were removed and replaced with F12K media containing 10% lipid reduced serum and compound. The final DMSO concentration is 0.1%. The cells were maintained in 5% CO2 at 37° C. for 4 days. The viability of cells was determined by MTT assays. The IC50 of a given compound was calculated by fitting the dose response curve with a four parameter logistic equation.

FASN enzyme = FASN enzyme (Homo sapiens, UniProt P49327); assay: Enzymatic Assay for FASN Inhibitors; format: biochemical
Procedure, shortened: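 40 nM FASN preincubated with compound 60 min at 25° C in HEPES pH 7.3 buffer with 0.04% Triton X-100. Then 20 μM acetyl-CoA, 60 μM malonyl-CoA and 100 μM NADPH added for 90 min, quenched with CPM thiol probe; fluorescence 360/530 nm, IC50 by four-parameter fit.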

[1] = read-out: IC50 (uM) < 0.5, 10% lipid reduced serum, 4 days, Table 3-1

FASN enzyme, sequence (P49327 whole entry): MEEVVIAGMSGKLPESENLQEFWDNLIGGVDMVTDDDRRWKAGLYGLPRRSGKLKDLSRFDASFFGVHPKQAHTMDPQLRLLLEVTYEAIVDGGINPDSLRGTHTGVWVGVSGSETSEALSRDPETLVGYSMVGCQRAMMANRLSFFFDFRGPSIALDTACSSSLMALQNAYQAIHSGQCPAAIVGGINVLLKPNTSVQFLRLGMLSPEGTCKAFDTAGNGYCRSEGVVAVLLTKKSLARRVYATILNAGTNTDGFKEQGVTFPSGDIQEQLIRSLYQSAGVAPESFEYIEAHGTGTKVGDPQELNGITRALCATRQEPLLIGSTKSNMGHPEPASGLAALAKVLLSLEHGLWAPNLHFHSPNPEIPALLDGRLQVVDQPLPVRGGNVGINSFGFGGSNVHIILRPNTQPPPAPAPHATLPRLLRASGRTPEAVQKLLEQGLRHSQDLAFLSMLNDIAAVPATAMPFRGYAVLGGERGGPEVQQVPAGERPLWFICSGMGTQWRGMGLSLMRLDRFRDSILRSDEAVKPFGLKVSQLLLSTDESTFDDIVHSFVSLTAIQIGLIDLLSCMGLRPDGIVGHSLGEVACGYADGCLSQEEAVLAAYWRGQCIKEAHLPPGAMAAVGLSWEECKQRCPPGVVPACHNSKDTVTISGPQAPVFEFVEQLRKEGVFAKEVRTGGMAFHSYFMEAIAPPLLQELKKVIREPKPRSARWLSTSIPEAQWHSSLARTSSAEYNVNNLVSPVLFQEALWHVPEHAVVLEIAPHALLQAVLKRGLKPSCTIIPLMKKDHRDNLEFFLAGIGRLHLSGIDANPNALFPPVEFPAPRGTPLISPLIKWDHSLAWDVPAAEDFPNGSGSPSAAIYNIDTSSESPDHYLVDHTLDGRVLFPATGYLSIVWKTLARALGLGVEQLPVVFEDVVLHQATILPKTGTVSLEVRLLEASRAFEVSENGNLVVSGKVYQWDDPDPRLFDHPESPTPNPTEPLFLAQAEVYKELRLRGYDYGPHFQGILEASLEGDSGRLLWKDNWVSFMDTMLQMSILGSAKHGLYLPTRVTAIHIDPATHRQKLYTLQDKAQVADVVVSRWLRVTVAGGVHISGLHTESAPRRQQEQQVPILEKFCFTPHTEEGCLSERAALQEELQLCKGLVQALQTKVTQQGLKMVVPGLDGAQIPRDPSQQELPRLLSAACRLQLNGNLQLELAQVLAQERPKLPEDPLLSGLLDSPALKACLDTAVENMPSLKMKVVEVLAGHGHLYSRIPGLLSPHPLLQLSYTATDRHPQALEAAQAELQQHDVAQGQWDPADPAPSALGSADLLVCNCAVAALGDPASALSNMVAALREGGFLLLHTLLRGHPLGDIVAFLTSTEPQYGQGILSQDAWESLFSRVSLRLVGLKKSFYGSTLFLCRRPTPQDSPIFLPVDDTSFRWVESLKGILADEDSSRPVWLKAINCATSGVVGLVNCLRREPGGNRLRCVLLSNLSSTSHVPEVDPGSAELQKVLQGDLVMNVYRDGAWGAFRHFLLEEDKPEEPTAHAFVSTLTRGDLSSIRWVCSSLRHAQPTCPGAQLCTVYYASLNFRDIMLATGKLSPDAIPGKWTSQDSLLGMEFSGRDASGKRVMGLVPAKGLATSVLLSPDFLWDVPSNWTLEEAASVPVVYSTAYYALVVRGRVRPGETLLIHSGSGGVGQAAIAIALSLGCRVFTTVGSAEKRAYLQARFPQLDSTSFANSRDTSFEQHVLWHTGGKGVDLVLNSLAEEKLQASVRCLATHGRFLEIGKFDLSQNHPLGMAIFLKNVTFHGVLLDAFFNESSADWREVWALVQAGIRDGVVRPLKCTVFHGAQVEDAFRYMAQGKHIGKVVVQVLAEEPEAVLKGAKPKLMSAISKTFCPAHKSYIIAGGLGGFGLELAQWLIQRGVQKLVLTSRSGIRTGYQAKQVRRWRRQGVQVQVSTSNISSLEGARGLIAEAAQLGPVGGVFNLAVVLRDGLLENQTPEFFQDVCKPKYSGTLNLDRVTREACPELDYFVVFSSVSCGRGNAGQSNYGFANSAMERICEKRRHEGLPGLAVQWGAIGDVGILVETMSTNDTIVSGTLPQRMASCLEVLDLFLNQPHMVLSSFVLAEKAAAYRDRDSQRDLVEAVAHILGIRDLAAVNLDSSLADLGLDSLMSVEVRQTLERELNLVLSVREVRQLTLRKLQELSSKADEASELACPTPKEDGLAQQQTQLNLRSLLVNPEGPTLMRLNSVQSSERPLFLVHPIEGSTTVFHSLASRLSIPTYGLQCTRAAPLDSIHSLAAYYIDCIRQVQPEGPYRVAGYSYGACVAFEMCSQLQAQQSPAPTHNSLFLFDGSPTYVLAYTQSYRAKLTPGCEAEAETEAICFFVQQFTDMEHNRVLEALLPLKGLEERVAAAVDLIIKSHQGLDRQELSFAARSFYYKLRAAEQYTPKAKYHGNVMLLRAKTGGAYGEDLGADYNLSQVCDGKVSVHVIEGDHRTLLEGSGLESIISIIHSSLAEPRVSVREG

Row | Structure (SMILES) | IC50 (PC3 cells; [1]) [µM] | IC50 (FASN enzyme) [nM] | IC50 (PC3 cells; read-out: IC50 (uM) ≥ 0.5, 10% lipid reduced serum, 4 days, Table 3-2) [µM]
1 | Cc1cc(C(=O)N2CCN(C(=O)C3(O)CC3)CC2)ccc1-c1ccc2ncccc2c1 [1-[(4-{[3-methyl-4-(quinolin-6-yl)phenyl]carbonyl}piperazin-1-yl)carbonyl]cyclopropan-1-ol] | < 0.5 | < 500 | 
2 | O=C(c1ccc(-c2nc3ccccc3s2)cc1)N1CCN(C(=O)C2(O)CC2)CC1 [1-[(4-{[4-(1,3-benzothiazol-2-yl)phenyl]carbonyl}piperazin-1-yl)carbonyl]cyclopropan-1-ol] | < 0.5 | < 500 | 
3 | O=C(c1ccc(-c2nc3ccccc3o2)cc1)N1CCN(C(=O)C2(O)CC2)CC1 [1-[(4-{[4-(1,3-benzoxazol-2-yl)phenyl]carbonyl}piperazin-1-yl)carbonyl]cyclopropan-1-ol] | < 0.5 | < 500 | 
4 | Cc1nn(C)c2ccc(-c3ccc(C(=O)N4CCN(C(=O)C5(O)CC5)CC4)cc3)cc12 [1-[(4-{[4-(1,3-dimethyl-1H-indazol-5-yl)phenyl]carbonyl}piperazin-1-yl)carbonyl]cyclopropan-1-ol] | < 0.5 | < 500 | 
5 | O=C(c1ccc(-c2ccc3occc3c2)cc1)N1CCN(C(=O)C2(O)CC2)CC1 [1-[(4-{[4-(1-benzofuran-5-yl)phenyl]carbonyl}piperazin-1-yl)carbonyl]cyclopropan-1-ol] | < 0.5 | < 500 | 
6 | Cn1ncc2ccc(-c3ccc(C(=O)N4CCN(C(=O)C5(O)CC5)CC4)cc3)cc21 [1-[(4-{[4-(1-methyl-1H-indazol-6-yl)phenyl]carbonyl}piperazin-1-yl)carbonyl]cyclopropan-1-ol] | < 0.5 | < 500 | 
7 | Cn1c(-c2ccc(C(=O)N3CCN(C(=O)C4(O)CC4)CC3)cc2)cc2ccccc21 [1-[(4-{[4-(1-methyl-1H-indol-2-yl)phenyl]carbonyl}piperazin-1-yl)carbonyl]cyclopropan-1-ol] | < 0.5 | < 500 | 
8 | O=C(c1ccc(-c2cccc3[nH]cnc23)cc1)N1CCN(C(=O)C2(O)CC2)CC1 [1-[(4-{[4-(1H-1,3-benzodiazol-4-yl)phenyl]carbonyl}piperazin-1-yl)carbonyl]cyclopropan-1-ol] | < 0.5 | < 500 | 
9 | O=C(c1ccc(-c2n[nH]c3ccccc23)cc1)N1CCN(C(=O)C2(O)CC2)CC1 [1-[(4-{[4-(1H-indazol-3-yl)phenyl]carbonyl}piperazin-1-yl)carbonyl]cyclopropan-1-ol] | < 0.5 | < 500 | 
10 | O=C(c1ccc(-c2cccc3[nH]ccc23)cc1)N1CCN(C(=O)C2(O)CC2)CC1 [1-[(4-{[4-(1H-indol-4-yl)phenyl]carbonyl}piperazin-1-yl)carbonyl]cyclopropan-1-ol] | < 0.5 | < 500 | 
11 | O=C(c1ccc(-c2ccc3[nH]ccc3c2)cc1)N1CCN(C(=O)C2(O)CC2)CC1 [1-[(4-{[4-(1H-indol-5-yl)phenyl]carbonyl}piperazin-1-yl)carbonyl]cyclopropan-1-ol] | < 0.5 | < 500 | 
12 | COc1ccc2cc(-c3ccc(C(=O)N4CCN(C(=O)C5(O)CC5)CC4)cc3)ccc2n1 [1-[(4-{[4-(2-methoxyquinolin-6-yl)phenyl]carbonyl}piperazin-1-yl)carbonyl]cyclopropan-1-ol] | < 0.5 | < 500 | 
13 | Cn1cc2cc(-c3ccc(C(=O)N4CCN(C(=O)C5(O)CC5)CC4)cc3)ccc2n1 [1-[(4-{[4-(2-methyl-2H-indazol-5-yl)phenyl]carbonyl}piperazin-1-yl)carbonyl]cyclopropan-1-ol] | < 0.5 | < 500 | 

Other lines, results leading:

Row | IC50 (PC3 cells; [1]) [µM] | IC50 (FASN enzyme) [nM] | IC50 (PC3 cells; read-out: IC50 (uM) ≥ 0.5, 10% lipid reduced serum, 4 days, Table 3-2) [µM] | Structure (SMILES)
14 | < 0.5 | < 500 |  | O=C(c1ccc(-c2ccc3scnc3c2)cc1Cl)N1CCN(C(=O)C2(O)CC2)CC1 [1-[(4-{[4-(1,3-benzothiazol-5-yl)-2-chlorophenyl]carbonyl}piperazin-1-yl)carbonyl]cyclopropan-1-ol]
15 | < 0.5 | < 500 |  | O=C(c1ccc(-c2ccc3scnc3c2)c(Cl)c1)N1CCN(C(=O)C2(O)CC2)CC1 [1-[(4-{[4-(1,3-benzothiazol-5-yl)-3-chlorophenyl]carbonyl}piperazin-1-yl)carbonyl]cyclopropan-1-ol]
16 | < 0.5 | < 500 |  | O=C(c1ccc(-c2ccc3scnc3c2)c(F)c1)N1CCN(C(=O)C2(O)CC2)CC1 [1-[(4-{[4-(1,3-benzothiazol-5-yl)-3-fluorophenyl]carbonyl}piperazin-1-yl)carbonyl]cyclopropan-1-ol]
17 | < 0.5 | < 500 |  | Cc1cc(C(=O)N2CCN(C(=O)C3(O)CC3)CC2)ccc1-c1ccc2scnc2c1 [1-[(4-{[4-(1,3-benzothiazol-5-yl)-3-methylphenyl]carbonyl}piperazin-1-yl)carbonyl]cyclopropan-1-ol]
18 | < 0.5 | < 500 |  | O=C(c1ccc(-c2ccc3scnc3c2)cc1)N1CCN(C(=O)C2(O)CC2)CC1 [1-[(4-{[4-(1,3-benzothiazol-5-yl)phenyl]carbonyl}piperazin-1-yl)carbonyl]cyclopropan-1-ol]
19 | < 0.5 | < 500 |  | O=C(c1ccc(-c2ccc3ncsc3c2)cc1)N1CCN(C(=O)C2(O)CC2)CC1 [1-[(4-{[4-(1,3-benzothiazol-6-yl)phenyl]carbonyl}piperazin-1-yl)carbonyl]cyclopropan-1-ol]
20 | < 0.5 | < 500 |  | O=C(c1ccc(-c2ccc3ocnc3c2)cc1)N1CCN(C(=O)C2(O)CC2)CC1 [1-[(4-{[4-(1,3-benzoxazol-5-yl)phenyl]carbonyl}piperazin-1-yl)carbonyl]cyclopropan-1-ol]
21 | < 0.5 | < 500 |  | Cn1cnc2cc(-c3ccc(C(=O)N4CCN(C(=O)C5(O)CC5)CC4)cc3)ccc21 [1-[(4-{[4-(1-methyl-1H-1,3-benzodiazol-5-yl)phenyl]carbonyl}piperazin-1-yl)carbonyl]cyclopropan-1-ol]
22 | < 0.5 | < 500 |  | Cn1ccc2cc(-c3ccc(C(=O)N4CCN(C(=O)C5(O)CC5)CC4)c(C(F)(F)F)c3)ccc21 [1-[(4-{[4-(1-methyl-1H-indol-5-yl)-2-(trifluoromethyl)phenyl]carbonyl}piperazin-1-yl)carbonyl]cyclopropan-1-ol]
23 | < 0.5 | < 500 |  | O=C(c1ccc(-c2ccc3[nH]cnc3c2)cc1)N1CCN(C(=O)C2(O)CC2)CC1 [1-[(4-{[4-(1H-1,3-benzodiazol-5-yl)phenyl]carbonyl}piperazin-1-yl)carbonyl]cyclopropan-1-ol]
24 | < 0.5 | < 500 |  | O=C(c1ccc(-c2ccc3nsnc3c2)cc1)N1CCN(C(=O)C2(O)CC2)CC1 [1-[(4-{[4-(2,1,3-benzothiadiazol-5-yl)phenyl]carbonyl}piperazin-1-yl)carbonyl]cyclopropan-1-ol]
25 |  | < 500 | ≥ 0.5 | O=C(c1ccc(-c2ccc(Cl)cc2Cl)cc1)N1CCN(C(=O)C2(O)CC2)CC1 [1-[(4-{[4-(2,4-dichlorophenyl)phenyl]carbonyl}piperazin-1-yl)carbonyl]cyclopropan-1-ol]
26 | < 0.5 | < 500 |  | Cn1cc2ccc(-c3ccc(C(=O)N4CCN(C(=O)C5(O)CC5)CC4)cc3)cc2n1 [1-[(4-{[4-(2-methyl-2H-indazol-6-yl)phenyl]carbonyl}piperazin-1-yl)carbonyl]cyclopropan-1-ol]
27 | < 0.5 | < 500 |  | O=C(c1ccc(-c2ccc3n[nH]nc3c2)cc1)N1CCN(C(=O)C2(O)CC2)CC1 [1-[(4-{[4-(2H-1,2,3-benzotriazol-5-yl)phenyl]carbonyl}piperazin-1-yl)carbonyl]cyclopropan-1-ol]
